Values of other authors, collected in EP0271041A2, “Atrial peptide derivatives” (ABBOTT LABORATORIES, priority 1986, dated 1988).
Bridges are numbered along the chain shown (N, C = ends). Where no end group is shown, it is not given here.

Conditions: relative to furosemide

alpha-human atrial natriuretic polypeptide (SLRRSSCFGGRMDRIGAQSGLGCNSFRY; disulfide 7-23 (inferred); ends not checked; UniProt P01160 124-151, looked up) [alpha-hANP, polypeptide consisting of 28 amino acids isolated from human atrium]
diuretic action, times as strong as that of furosemide: about 1000 times
